PMC10006169, “A phase I trial of LXS196, a protein kinase C (PKC) inhibitor, for metastatic uveal melanoma” (British Journal of Cancer, 2023)
Where “and” joins values, the source holds several entries; their conditions need not be identical. Equal entries are not always repeated.

System: patients with MUM
Assay: Adverse events regardless of study drug relationship
Type: in vivo, human
Description: Routine safety assessments, including laboratory assessments, physical examinations, vital signs and electrocardiograms (ECGs), were conducted at regular intervals throughout the study and more frequently as needed following patient assessment by the treating physician. Adverse events (AEs) were assessed continuously according to the National Cancer Institute Common Terminology Criteria for Adverse Events (NCI-CTCAE) v4.03.

CC1(N)CCN(c2cccnc2NC(=O)c2nc(-c3ncccc3C(F)(F)F)cnc2N)CC1 [LXS196]
ALT increased, all grades (All BID): 9 (30.0) n (%) | ALT increased, grade ≥3 (All BID): 2 (6.7) n (%) | AST increased, all grades (All BID): 8 (26.7) n (%) | AST increased, grade ≥3 (All BID): 3 (10.0) n (%) | Abdominal pain upper, all grades (All BID): 3 (10.0) n (%) | Abdominal pain upper, grade ≥3 (All BID): 0 n (%) | Asthenia, all grades (All BID): 7 (23.3) n (%) | Asthenia, grade ≥3 (All BID): 0 n (%) | Blood creatinine increased, all grades (All BID): 5 (16.7) n (%) | Blood creatinine increased, grade ≥3 (All BID): 0 n (%) | Constipation, all grades (All BID): 7 (23.3) n (%) | Constipation, grade ≥3 (All BID): 0 n (%) | Decreased appetite, all grades (All BID): 5 (16.7) n (%) | Decreased appetite, grade ≥3 (All BID): 0 n (%) | Dermatitis acneiform, all grades (All BID): 5 (16.7) n (%) | Dermatitis acneiform, grade ≥3 (All BID): 0 n (%) | Diarrhoea, all grades (All BID): 17 (56.7) n (%) | Diarrhoea, grade ≥3 (All BID): 1 (3.3) n (%) | Dry skin, all grades (All BID): 6 (20.0) n (%) | Dry skin, grade ≥3 (All BID): 0 n (%) | Fatigue, all grades (All BID): 7 (23.3) n (%) | Fatigue, grade ≥3 (All BID): 0 n (%) | Hypotension, all grades (All BID): 7 (23.3) n (%) | Hypotension, grade ≥3 (All BID): 1 (3.3) n (%) | Nasopharyngitis, all grades (All BID): 3 (10.0) n (%) | Nasopharyngitis, grade ≥3 (All BID): 0 n (%) | Nausea, all grades (All BID): 21 (70.0) n (%) | Nausea, grade ≥3 (All BID): 0 n (%) | Neutropenia, all grades (All BID): 2 (6.7) n (%) | Neutropenia, grade ≥3 (All BID): 0 n (%) | Oedema peripheral, all grades (All BID): 8 (26.7) n (%) | Oedema peripheral, grade ≥3 (All BID): 1 (3.3) n (%) | Patients with ≥1 AE, all grades (All BID): 30 (100) n (%) | Patients with ≥1 AE, grade ≥3 (All BID): 15 (50.0) n (%) | Rash, all grades (All BID): 6 (20.0) n (%) | Rash, grade ≥3 (All BID): 0 n (%) | Vomiting, all grades (All BID): 11 (36.7) n (%) | Vomiting, grade ≥3 (All BID): 0 n (%) | ALT increased, all grades (All QD): 9 (23.7) n (%) | ALT increased, grade ≥3 (All QD): 2 (5.3) n (%) | AST increased, all grades (All QD): 5 (13.2) n (%) | AST increased, grade ≥3 (All QD): 2 (5.3) n (%) | Abdominal pain upper, all grades (All QD): 4 (10.5) n (%) | Abdominal pain upper, grade ≥3 (All QD): 0 n (%) | Asthenia, all grades (All QD): 8 (21.1) n (%) | Asthenia, grade ≥3 (All QD): 0 n (%) | Blood creatinine increased, all grades (All QD): 3 (7.9) n (%) | Blood creatinine increased, grade ≥3 (All QD): 0 n (%) | Constipation, all grades (All QD): 10 (26.3) n (%) | Constipation, grade ≥3 (All QD): 0 n (%) | Decreased appetite, all grades (All QD): 5 (13.2) n (%) | Decreased appetite, grade ≥3 (All QD): 0 n (%) | Dermatitis acneiform, all grades (All QD): 2 (5.3) n (%) | Dermatitis acneiform, grade ≥3 (All QD): 0 n (%) | Diarrhoea, all grades (All QD): 20 (52.6) n (%) | Diarrhoea, grade ≥3 (All QD): 0 n (%) | Dry skin, all grades (All QD): 3 (7.9) n (%) | Dry skin, grade ≥3 (All QD): 0 n (%) | Fatigue, all grades (All QD): 12 (31.6) n (%) | Fatigue, grade ≥3 (All QD): 0 n (%) | Hypotension, all grades (All QD): 8 (21.1) n (%) | Hypotension, grade ≥3 (All QD): 5 (13.2) n (%) | Nasopharyngitis, all grades (All QD): 4 (10.5) n (%) | Nasopharyngitis, grade ≥3 (All QD): 0 n (%) | Nausea, all grades (All QD): 27 (71.1) n (%) | Nausea, grade ≥3 (All QD): 1 (2.6) n (%) | Neutropenia, all grades (All QD): 5 (13.2) n (%) | Neutropenia, grade ≥3 (All QD): 2 (5.3) n (%) | Oedema peripheral, all grades (All QD): 5 (13.2) n (%) | Oedema peripheral, grade ≥3 (All QD): 0 n (%) | Patients with ≥1 AE, all grades (All QD): 36 (94.7) n (%) | Patients with ≥1 AE, grade ≥3 (All QD): 14 (36.8) n (%) | Rash, all grades (All QD): 4 (10.5) n (%) | Rash, grade ≥3 (All QD): 0 n (%) | Vomiting, all grades (All QD): 15 (39.5) n (%) | Vomiting, grade ≥3 (All QD): 1 (2.6) n (%) | ALT increased, all grades (All patients): 18 (26.5) n (%) | ALT increased, grade ≥3 (All patients): 4 (5.9) n (%) | AST increased, all grades (All patients): 13 (19.1) n (%) | AST increased, grade ≥3 (All patients): 5 (7.4) n (%) | Abdominal pain upper, all grades (All patients): 7 (10.3) n (%) | Abdominal pain upper, grade ≥3 (All patients): 0 n (%) | Asthenia, all grades (All patients): 15 (22.1) n (%) | Asthenia, grade ≥3 (All patients): 0 n (%) | Blood creatinine increased, all grades (All patients): 8 (11.8) n (%) | Blood creatinine increased, grade ≥3 (All patients): 0 n (%) | Constipation, all grades (All patients): 17 (25.0) n (%) | Constipation, grade ≥3 (All patients): 0 n (%) | Decreased appetite, all grades (All patients): 10 (14.7) n (%) | Decreased appetite, grade ≥3 (All patients): 0 n (%) | Dermatitis acneiform, all grades (All patients): 7 (10.3) n (%) | Dermatitis acneiform, grade ≥3 (All patients): 0 n (%) | Diarrhoea, all grades (All patients): 37 (54.4) n (%) | Diarrhoea, grade ≥3 (All patients): 1 (1.5) n (%) | Dry skin, all grades (All patients): 9 (13.2) n (%) | Dry skin, grade ≥3 (All patients): 0 n (%) | Fatigue, all grades (All patients): 19 (27.9) n (%) | Fatigue, grade ≥3 (All patients): 0 n (%) | Hypotension, all grades (All patients): 15 (22.1) n (%) | Hypotension, grade ≥3 (All patients): 6 (8.8) n (%) | Nasopharyngitis, all grades (All patients): 7 (10.3) n (%) | Nasopharyngitis, grade ≥3 (All patients): 0 n (%) | Nausea, all grades (All patients): 48 (70.6) n (%) | Nausea, grade ≥3 (All patients): 1 (1.5) n (%) | Neutropenia, all grades (All patients): 7 (10.3) n (%) | Neutropenia, grade ≥3 (All patients): 2 (2.9) n (%) | Oedema peripheral, all grades (All patients): 13 (19.1) n (%) | Oedema peripheral, grade ≥3 (All patients): 1 (1.5) n (%) | Patients with ≥1 AE, all grades (All patients): 66 (97.1) n (%) | Patients with ≥1 AE, grade ≥3 (All patients): 29 (42.6%) n (%) and 29 (42.6) n (%) | Rash, all grades (All patients): 10 (14.7) n (%) | Rash, grade ≥3 (All patients): 0 n (%) | Vomiting, all grades (All patients): 26 (38.2) n (%) | Vomiting, grade ≥3 (All patients): 1 (1.5) n (%) | AE leading to discontinuation of LXS196 (SAE grade 3/4, one patient, BID schedule): hepatic failure
